Measured values reported in ChEMBL document CHEMBL4177730, “Rational modification of semaxanib and sunitinib for developing a tumor growth inhibitor targeting ATP binding site of tyrosine kinase” (2018).
Active and inactive are the calls of the source.

Experiments:
SK-MEL-28 [1] = test: Growth inhibition of human SK-MEL-28 cells at 10 uM after 48 hrs by sulforhodamine B assay; format: functional, cell-based
MDA-MB-231 = test: Growth inhibition of human MDA-MB-231 cells at 10 uM after 48 hrs by sulforhodamine B assay; format: functional, cell-based
TK-10 = test: Growth inhibition of human TK10 cells at 10 uM after 48 hrs by sulforhodamine B assay; format: functional, cell-based
SF-539 = test: Growth inhibition of human SF539 cells after 48 hrs by sulforhodamine B assay; format: functional; conditions: SF-539, 48 h
OVCAR-3 = test: Growth inhibition of human OVCAR3 cells after 48 hrs by sulforhodamine B assay; format: functional; conditions: OVCAR-3, 48 h
EKVX = test: Growth inhibition of human EKVX cells at 10 uM after 48 hrs by sulforhodamine B assay; format: functional, cell-based
U-251 = test: Growth inhibition of human U251 cells at 10 uM after 48 hrs by sulforhodamine B assay; format: functional, cell-based
NCI-H322M [2] = test: Growth inhibition of human NCI-H322M cells after 48 hrs by sulforhodamine B assay; format: functional
NCI-H522 = test: Growth inhibition of human NCI-H522 cells at 10 uM after 48 hrs by sulforhodamine B assay; format: functional, cell-based
K562 [3] = test: Growth inhibition of human K562 cells at 10 uM after 48 hrs by sulforhodamine B assay; format: functional, cell-based
NCI-H460 = test: Growth inhibition of human NCI-H460 cells at 10 uM after 48 hrs by sulforhodamine B assay; format: functional, cell-based
KM12 = test: Growth inhibition of human KM12 cells at 10 uM after 48 hrs by sulforhodamine B assay; format: functional, cell-based
HL-60(TB) = test: Growth inhibition of human HL-60(TB) cells after 48 hrs by sulforhodamine B assay; format: functional; conditions: HL-60, 48 h
COLO 205 = test: Growth inhibition of human COLO205 cells after 48 hrs by sulforhodamine B assay; format: functional; conditions: COLO 205, 48 h
MDA-MB-468 [4] = test: Growth inhibition of human MDA-MB-468 cells after 48 hrs by sulforhodamine B assay; format: functional; conditions: MDA-MB-468, 48 h
SK-MEL-2 = test: Growth inhibition of human SK-MEL-2 cells at 10 uM after 48 hrs by sulforhodamine B assay; format: functional, cell-based
SK-MEL-28 [5] = test: Growth inhibition of human SK-MEL-28 cells after 48 hrs by sulforhodamine B assay; format: functional; conditions: SK-MEL-28, 48 h
NCI-H23 = test: Growth inhibition of human NCI-H23 cells after 48 hrs by sulforhodamine B assay; format: functional; conditions: NCI-H23, 48 h
Malme-3M [6] = test: Growth inhibition of human MALME-3M cells after 48 hrs by sulforhodamine B assay; format: functional
SF-268 = test: Growth inhibition of human SF268 cells after 48 hrs by sulforhodamine B assay; format: functional; conditions: SF-268, 48 h
CCRF-CEM [7] = test: Growth inhibition of human CCRF-CEM cells after 48 hrs by sulforhodamine B assay; format: functional
UO-31 = test: Growth inhibition of human UO31 cells at 10 uM after 48 hrs by sulforhodamine B assay; format: functional, cell-based
SK-OV-3 [8] = test: Growth inhibition of human SKOV3 cells after 48 hrs by sulforhodamine B assay; format: functional; conditions: SK-OV-3, 48 h
RPMI-8226 = test: Growth inhibition of human RPMI8226 cells after 48 hrs by sulforhodamine B assay; format: functional; conditions: RPMI-8226, 48 h
A549 = test: Growth inhibition of human A549/ATCC cells at 10 uM after 48 hrs by sulforhodamine B assay; format: functional, cell-based
Malme-3M [9] = test: Growth inhibition of human MALME-3M cells at 10 uM after 48 hrs by sulforhodamine B assay; format: functional, cell-based
SK-OV-3 [10] = test: Growth inhibition of human SKOV3 cells at 10 uM after 48 hrs by sulforhodamine B assay; format: functional, cell-based
PC-3 [11] = test: Growth inhibition of human PC3 cells after 48 hrs by sulforhodamine B assay; format: functional; conditions: PC-3, 48 h
LOX IMVI = test: Growth inhibition of human LOXIMVI cells at 10 uM after 48 hrs by sulforhodamine B assay; format: functional, cell-based
SF-295 = test: Growth inhibition of human SF295 cells after 48 hrs by sulforhodamine B assay; format: functional; conditions: SF-295, 48 h
CAKI-1 = test: Growth inhibition of human CAKI-1 cells at 10 uM after 48 hrs by sulforhodamine B assay; format: functional, cell-based
SN12C = test: Growth inhibition of human SN12C cells at 10 uM after 48 hrs by sulforhodamine B assay; format: functional, cell-based
PC-3 [12] = test: Growth inhibition of human PC3 cells at 10 uM after 48 hrs by sulforhodamine B assay; format: functional, cell-based
MDA-MB-468 [13] = test: Growth inhibition of human MDA-MB-468 cells at 10 uM after 48 hrs by sulforhodamine B assay; format: functional, cell-based
OVCAR-5 = test: Growth inhibition of human OVCAR5 cells at 10 uM after 48 hrs by sulforhodamine B assay; format: functional, cell-based
K562 [14] = test: Growth inhibition of human K562 cells after 48 hrs by sulforhodamine B assay; format: functional; conditions: K562, 48 h
NCI-H322M [15] = test: Growth inhibition of human NCI-H322M cells at 10 uM after 48 hrs by sulforhodamine B assay; format: functional, cell-based
T47D = test: Growth inhibition of human T47D cells at 10 uM after 48 hrs by sulforhodamine B assay; format: functional, cell-based
RXF 393 = test: Growth inhibition of human RXF393 cells after 48 hrs by sulforhodamine B assay; format: functional; conditions: RXF 393, 48 h
ACHN = test: Growth inhibition of human ACHN cells at 10 uM after 48 hrs by sulforhodamine B assay; format: functional, cell-based
CCRF-CEM [16] = test: Growth inhibition of human CCRF-CEM cells at 10 uM after 48 hrs by sulforhodamine B assay; format: functional, cell-based
786-0 = test: Growth inhibition of human 786-0 cells at 10 uM after 48 hrs by sulforhodamine B assay; format: functional, cell-based
[17] = read-out: LC50 (the source's name)

O=C1/C(=C\c2cccn2Cc2ccccc2)c2ccccc2N1c1c(Cl)cccc1Cl
> 100 µM: GI50 (SF-539) | TGI (SF-539) | CC50 (SF-539; [17]) | TGI (OVCAR-3) | CC50 (OVCAR-3; [17]) | TGI (NCI-H322M [2]) | CC50 (NCI-H322M [2]; [17]) | GI50 (HL-60(TB)) | TGI (HL-60(TB)) | CC50 (HL-60(TB); [17]) | CC50 (COLO 205; [17]) | GI50 (SK-MEL-28 [5]) | TGI (SK-MEL-28 [5]) | CC50 (SK-MEL-28 [5]; [17]) | TGI (NCI-H23) | CC50 (NCI-H23; [17]) | TGI (Malme-3M [6]) | CC50 (Malme-3M [6]; [17]) | GI50 (SF-268) | TGI (SF-268) | CC50 (SF-268; [17]) | GI50 (CCRF-CEM [7]) | TGI (CCRF-CEM [7]) | CC50 (CCRF-CEM [7]; [17]) | GI50 (SK-OV-3 [8]) | TGI (SK-OV-3 [8]) | CC50 (SK-OV-3 [8]; [17]) | TGI (RPMI-8226) | CC50 (RPMI-8226; [17]) | TGI (PC-3 [11]) | CC50 (PC-3 [11]; [17]) | GI50 (SF-295) | TGI (SF-295) | CC50 (SF-295; [17]) | GI50 (K562 [14]) | TGI (K562 [14]) | CC50 (K562 [14]; [17]) | GI50 (RXF 393) | TGI (RXF 393) | CC50 (RXF 393; [17])
6.91 µM: GI50 (PC-3 [11])
3.16 µM: GI50 (Malme-3M [6])
1.38 µM: CC50 (MDA-MB-468 [4]; [17])
0.28 µM: TGI (MDA-MB-468 [4])
39.8 µM: GI50 (NCI-H23)
9.33 µM: TGI (COLO 205)
14.8 µM: GI50 (NCI-H322M [2])
active: growth inhibition (GI) (SK-MEL-28 [1]) | growth inhibition (GI) (MDA-MB-231) | growth inhibition (GI) (TK-10) | growth inhibition (GI) (EKVX) | growth inhibition (GI) (U-251) | growth inhibition (GI) (NCI-H522) | growth inhibition (GI) (K562 [3]) | growth inhibition (GI) (NCI-H460) | growth inhibition (GI) (KM12) | growth inhibition (GI) (SK-MEL-2) | growth inhibition (GI) (UO-31) | growth inhibition (GI) (A549) | growth inhibition (GI) (Malme-3M [9]) | growth inhibition (GI) (SK-OV-3 [10]) | growth inhibition (GI) (LOX IMVI) | growth inhibition (GI) (CAKI-1) | growth inhibition (GI) (SN12C) | growth inhibition (GI) (PC-3 [12]) | growth inhibition (GI) (MDA-MB-468 [13]) | growth inhibition (GI) (OVCAR-5) | growth inhibition (GI) (NCI-H322M [15]) | growth inhibition (GI) (T47D) | growth inhibition (GI) (ACHN) | growth inhibition (GI) (CCRF-CEM [16]) | growth inhibition (GI) (786-0)
0.74 µM: GI50 (OVCAR-3)
1.04 µM: GI50 (COLO 205)
0.063 µM: GI50 (MDA-MB-468 [4])
1.28 µM: GI50 (RPMI-8226)
